From patent publication US8802678B2, “Carbonylated (aza) cyclohexanes as dopamine D3 receptor ligands” (Bioprojet, priority 2006, dated 2014)

Row | Compound | melting point [°C]
1 | O=C(N[C@H]1CC[C@H](CCN2CCN(c3cccc(-c4ncco4)c3)CC2)CC1)C1=COCC1 [Example 532, 4,5-Dihydrofuran-3-carboxylic acid(4-{2-[4-(3-oxazol-2-ylphenyl)piperazin-1-yl]ethyl}cyclohexyl) amide] | 202
2 | Cc1cc(C)cc(N2CCN(CC[C@H]3CC[C@H](NC(=O)CCC#N)CC3)CC2)c1 [Example 716, 3-Cyano-N-(4-{2-[4-(3,5-dimethylphenyl)piperazin-1-yl]ethyl}cyclohexyl)propanamide] | 175
3 | CC(=O)CN1CCC(CCN2CC=C(c3cccc(C(F)(F)F)c3)CC2)CC1.Cl.Cl | 268
4 | COc1ccc(Cl)cc1N1CCN(CC[C@H]2CC[C@H](NC(=O)CCCC#N)CC2)CC1 [Example 415, N-(4-{2-[4-(5-Chloro-2-methoxyphenyl)piperazin-1-yl]ethyl}cyclohexyl)-4-cyanobutanamide] | 152
5 | NC(=O)CC(=O)N[C@H]1CC[C@H](CCN2CCN(c3cc(C(F)(F)F)cc(C(F)(F)F)c3)CC2)CC1 [Example 738, N-(4-{2-[4-(3,5-Bistrifluoro-methylphenyl)piperazin-1-yl]ethyl}cyclohexyl)malonamide] | 165
6 | CCC(O)c1cccc(N2CCN(CC[C@H]3CC[C@H](NC(=O)CCCC#N)CC3)CC2)c1 (stereo partly drawn) [Example 540, 4-cyano-N-[4-(2-{4-[3-(1-hydroxypropyl)phenyl]piperazin-1-yl}ethyl)cyclohexyl]butanamide] | 151
7 | N#CCCCC(=O)N[C@H]1CC[C@H](CCN2CCN(c3cc(C(F)(F)F)c(Cl)cc3Cl)CC2)CC1 [Example 424, 4-Cyano-N-(4-{2-[4-(2,4-dichloro-5-trifluoromethylphenyl)piperazin-1-yl]ethyl}cyclohexyl)butanamide] | 188
8 | CO[C@H](C)C(=O)N[C@H]1CC[C@H](CCN2CCN(c3ccccc3F)CC2)CC1 (stereo in doubt) [Example 75, N-(4-{2-[4-(2-Fluorophenyl)-piperazin-1-yl]ethyl}cyclohexyl)-2-methoxypropanamide] | 162
9 | CC(=O)CN1CCC(CCN2CCN(c3cccc(F)c3C)CC2)CC1.Cl.Cl | 317
10 | CC(=O)CN1CCC(CCN2CCN(c3ccc4c(c3)CCCC4)CC2)CC1 [Example 576] | 75

Now from value to compound:

Row | melting point [°C] | Compound
11 | 135 | CNC(=O)C=C1CCC(CCN2CCN(c3ccccc3F)CC2)CC1 (stereo not drawn) [Example 299, 2-(4-{2-[4-(2-Fluorophenyl)piperazin-1-yl]ethyl}cyclohexylidene)-N-methylacetamide]
12 | 196 | N#CCC(=O)N[C@H]1CC[C@H](CCN2CCN(c3cc(C(F)(F)F)cc(C(F)(F)F)c3)CC2)CC1 [Example 107, N-(4-{2-[4-(3,5-Bistrifluoro-methylphenyl)piperazin-1-yl]ethyl}cyclohexyl)-2-cyanoacetamide]
13 | 107 | CC(=O)CN1CCC(CCN2CCN(c3cc(F)cc(Cl)c3)CC2)CC1 [Example 581, 1-(4-{2-[4-(3-Chloro-5-fluorophenyl)piperazin-1-yl]ethyl}piperidin-1-yl)propan-2-one]
14 | 187 to 189 | N#CCC(=O)N[C@H]1CC[C@H](CCN2CCN(c3cccc(F)c3C#N)CC2)CC1 [Example 208]
15 | 220 | Cc1cc(C)cc(C2=CCN(CC[C@H]3CC[C@@H](NC(=O)CC#N)CC3)CC2)c1.Cl
16 | 290 | CC(=O)CN1CCC(CCN2CCN(c3ccccc3C(F)(F)F)CC2)CC1.Cl.Cl
17 | 114 | CC(=O)CN1CCC(CCN2CCN(c3cccc(Cl)c3)CC2)CC1 [Example 29, 1-(4-{2-[4-(3-Chlorophenyl)-piperazin-1-yl]ethyl}piperidin-1-yl)propan-2-one]
18 | 190 | N#CCC(=O)N[C@H]1CC[C@H](CCN2CCN(c3cccc(F)c3F)CC2)CC1 [Example 113, 2-Cyano-N-(4-{2-[4-(2,3-difluorophenyl)piperazin-1-yl]ethyl}cyclohexyl)acetamide]
